From patent publication US5439940A, “Benz[e]indene derivatives” (priority 1992, dated 1995)
Where two headings read alike, the source gives them in different places.

Legend:
[1] = tested on: acetic acid writhing reactions; assay: Analgesic effect (acetic acid writhing, Newbould); assay type: in vivo, mouse (NMRI); conditions: Mus musculus, 1 h, read-out: Analgesic effect ID50
Protocol: The characteristic "writhing reactions" were counted for a period of 5 minutes, starting from the fifth minute after challenge. […] Each group of animals consisted of at least 10 mice. […]

[2] = tested on: carrageen-induced paw volume; assay: Antiinflammatory effect (carrageen paw, Winter et al.); assay type: in vivo, rat (Wistar); conditions: po, read-out: Antiinflammatory effect ID30
Protocol: The antiinflammatory effect was investigated on Wistar rats weighing 150-180 g according to the method of Winter et al. 0.1 ml of a 1 percent carrageen suspension was injected subcutaneously into the plantar region of one of the hind paws. The animals were fasted for 12 hours and received drinking water ad libitum. One hour before treatment with the test compound the rats were hydrated orally with 30 ml/kg of tap water. The test compounds and the vehicle were administered p.o. in a volume of 10 ml/kg, then 1 hour later carrageen was applied. The volume of the treated paw was measured by mercury-plethysmometer before and 3 hours after injection in such a way that displacement of the liquid arising from the volume alteration was indicated on a millimeter scale. […] A., Risley, E. A., Nuss, G. W.: Proc. Soc.

catalepsy = assay: Catalepsy; assay type: in vivo, rat (Wistar); conditions: rat
Protocol: The extrapyramidal syndrome, the most important side effect limiting the application of the neuroleptic drugs in man, can be produced in experimental animals in the form of catalepsy. Our experiments in 150-160 g Wistar rats were performed according to Morpurgo. The catalepsy, appearing 60 minutes after dosing, was scored as follows. Both forelegs of each animal were put for 10 seconds onto a rubber stopper of 3 cm height, then for additional 10 seconds onto a same stopper of 9 cm height. […] The procedure was repeated in each 30 minutes during four hours, obtaining scores proportional to the degree of the catalepsy. Results were used to calculate the minimum effective dose [MED, the lowest dose resulting statistically significant alteration, c.f.: Morpurgo, C.: Arch. Int.

[3] = tested on: experimental coronary insufficiency; assay: Antianginal effect (glanduitrine-induced coronary insufficiency, Nieschultz); assay type: in vivo, rat (male); conditions: Rat2, iv; rat, 2 mg/kg, glanduitrine 4 NE/kg i.v., T-wave; read-out: Inhibition in a dose of 2 mg/kg
Protocol: The test was carried out on male rats weighing 180-220 g. The animals were narcotized with the aid of chloralose-urethane. ECG was registered by means of needle electrodes in standard II output. Antianginal effect was tested according to the method of Nieschultz. Experimental coronary insufficiency was induced by administering glanduitrine (4 NE/kg i.v.).

[4] = tested on: learned conditioned avoidance reflex; assay: Antipsychotic effect: inhibition of conditioned avoidance reflex (shuttle box); assay type: in vivo, rat (male Wistar)
Protocol: The antipsychotic (neuroleptic) effect was measured by the inhibition of the learned conditioned avoidance reflex. The male Wistar rats used for the study were of 120-150 g bodyweight at the commencement of learning. […] In response to a suitable warning stimulus, in order to avoid the punishing (unconditioned) stimulus, animals within the box passed through the gate from one part over the other. The warning, i.e. conditioned stimulus (CS), a white light (1 Hz) blinking for 15 seconds, was applied at the place of the actual animal existence. The unconditioned stimulus (US), in form of 0.6 mA intensity electric shock, was randomly applied to the paw during the last 5 seconds of the conditioned stimulus. Animal's movement during the CS and US from one part of the box over the other, was defined as avoidance and escape responses, respectively. Both responses ceased the actual stimulus and stopped the trial. The time elapsed until the next trial (intertrial interval, ITI) was 15 seconds. While one experiment was carried out daily, an experiment consisted of 80 trials. Learning efficiency was expressed as percentage of the successful to the total avoidances. […] Dosing was carried out once a week, one hour before the measurement in the shuttle box.

spontaneous motility = assay: Spontaneous motility inhibiting activity (Dews equipment); assay type: in vivo; conditions: Mus musculus, 0.5 h; oral, beam interruptions within 30 minutes; read-out: Motility inhibiting activity ID50
Protocol: The spontaneous motility inhibiting activity was examined according to the method of Borsy et al. Groups consisting of 3 mice each were treated orally with different doses of the compounds to be tested, then the test animals were placed in a Dews equipment. In this equipment the number of interruptions of infrared beam within 30 minutes was counted. […] [Borsy, J., Csanyi, E., Lazar, I.: Arch. Int.. Pharmacodyn. 124, 1 (1960)].

shocks tolerated = assay: Anxiolytic effect (Vogel et al.); assay type: in vivo, rat (male Wistar)
Protocol: The anxiolytic effect was tested by using the method of Vogel et al. Male Wistar rats of 160-180 g bodyweight were kept free of food and drinking water for 24 and 48 hours, respectively. Test and carrier substances were administered intraperitoneally two hours before testing. Animals within the experimental chamber were provided with drinking water through an inserted tube. After the animals' each twenty lapping for water the device emitted a 2 mA intensity electric shock through the drinking tube. During 5 minutes the shocks tolerated by the animals in order to quench their thirst were counted. The effect of treatment was expressed as the % increase of the tolerated shocks. The minimum effective dose (MED) was determined for each test compound [Voqel, J. R., Beer, B., Clody, D. E.: Psychopharmacologia (Berl.) 21, 1 (1971)].

hexobarbital narcosis = assay: Hexobarbital narcosis potentiating effect on mice; assay type: in vivo, mouse
Protocol: The hexobarbital narcosis potentiating effect was examined on mice. Groups consisting of 6 animals were used for each dose. The animals were treated orally with the test compound, whereby sleeping was induced 1 hour later by administering a 40 mg/kg i.v. dose of hexobarbital both to the test and control groups. […] ED50 values were calculated from the thus-transformed data [Kaergaard Nielsen C. et al., Arch. Int. Pharmacodyn. 2, 170 (1967)].

[5] = Acute toxicity on mice (oral LD50); conditions: mouse, in vivo, 7 days observation, maximal dose 1000 mg/kg
Protocol: Mice belonging to the NMRI strain (body weight 20-25 g, both male and female) were used, 6 to 10 animals for each dose. The test compound was administered orally in a volume of 20 ml/kg. The applied maximal dose was 1000 mg/kg. […] The mice were kept in a plastic cage at room temperature. The animals got tap water and standard mouse fodder ad libitum. The toxicity data were determined by the aid of the method of Litchfield and Wilcoxon [Litchfield, J. T., Wilcoxon, F. W.: J. Pharmacol. Exp. Ther., 96, 99 (1949)].

[6] = mice, 0.75% acetic acid one hour after treatment
[7] = rat, p.o., 1 hour before carrageen, paw volume 3 hours after

Row | Structure (SMILES) | ED50 [1, 6] [mg/kg] | ED30 [2, 7] [mg/kg] | Therapeutic index (Catalepsy MED / Conditioned Reflex ID50) (catalepsy) | Catalepsy MED (catalepsy; scored from 60 minutes after dosing, four hours) [mg/kg] | inhibition in vivo at 2 mg/kg [3] [%] | ED50 ([4]; 1 h, rat, dosing one hour before measurement, read-out: Conditioned reflex ID50) [mg/kg] | character when administered in higher doses (in words) ([4]; higher doses) | antipsychotic effect compared with reference substances (in words) ([4]; rat) | ED50 (spontaneous motility) [mg/kg] | minimal effective dose (shocks tolerated; ip, 2 h, rat, intraperitoneal, two hours before testing, read-out: Anxiolytic effect MED) [mg/kg] | anxiolytic effect compared with Chlordiazepoxide and Meprobamate (in words) (shocks tolerated; rat) | character in smaller doses (in words) (shocks tolerated; smaller doses) | ED50 (hexobarbital narcosis; Mus musculus, oral, 1 hour before hexobarbital 40 mg/kg i.v., sleeping time >2.5 times control, read-out: ED50 hexobarbital narcosis potentiation) [mg/kg] | tranquillo-sedative activity rank (in words) (hexobarbital narcosis; compared within the structural group) | LD50 at 168 h [5] [mg/kg] | ED50 [1] [mg/kg] | ED30 ([2]; Rattus norvegicus, 3 h) [mg/kg]
1 | CC(=O)Nc1ccc(O)cc1 [Paracetamol, reference compound] | 421 | 195 |  |  |  |  |  |  |  |  |  |  |  |  |  |  | 
2 | OC(CNC1CC1)CON=C1CCc2c1ccc1ccccc21 (stereo not shown) [Example 17, 3-[3-(Cyclopropylamino)-2-hydroxypropoxyimino]-2,3-dihydro-1H-benz[e]indene] | 14 | 40 | 3.8 | 100 | 50 | 26.3 | neuroleptic | superior to Thioridazine and inferior to Chlorpromazine | 6 | 0.1 | superior to the reference substances by orders of magnitude | anxiolytic | 11 | the most active member in the structural group | 660 |  | 
3 | CC(=O)Oc1ccccc1C(=O)O [Acetylsalicylic acid, reference compound] |  |  |  |  |  |  |  |  |  |  |  |  |  |  |  | 261 | 62
